Reference: PMC6522912, “Evaluation of the published kinase inhibitor set to identify multiple inhibitors of bacterial ATP-dependent mur ligases” (Journal of Enzyme Inhibition and Medicinal Chemistry, 2019)

Columns and labels:
human kinases = details: over 200 kinase activity assays and 68 DSF assays; cited from earlier work
E. coli MurD = E. coli MurD (Escherichia coli, UniProt P14900); test: biochemical
Procedure, shortened: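 Reaction 15 min at 37 °C, then phosphate detected with Biomol green at 650 nm. Values are residual activity versus 5% DMSO carrier controls.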

[1] = Solubility observations in assay mixtures and NMR buffer; assay type: physicochemical; details: NMR buffer, MurD:ligand molar ratio 1:8, 0.07 mM MurD
MurD = MurD (Escherichia coli, UniProt P14900); test: 1H/13C HSQC NMR study of ligand binding; details: chemical shift perturbations, without and with 2 mM AMP-PCP
Sequence of MurD (P14900 whole entry): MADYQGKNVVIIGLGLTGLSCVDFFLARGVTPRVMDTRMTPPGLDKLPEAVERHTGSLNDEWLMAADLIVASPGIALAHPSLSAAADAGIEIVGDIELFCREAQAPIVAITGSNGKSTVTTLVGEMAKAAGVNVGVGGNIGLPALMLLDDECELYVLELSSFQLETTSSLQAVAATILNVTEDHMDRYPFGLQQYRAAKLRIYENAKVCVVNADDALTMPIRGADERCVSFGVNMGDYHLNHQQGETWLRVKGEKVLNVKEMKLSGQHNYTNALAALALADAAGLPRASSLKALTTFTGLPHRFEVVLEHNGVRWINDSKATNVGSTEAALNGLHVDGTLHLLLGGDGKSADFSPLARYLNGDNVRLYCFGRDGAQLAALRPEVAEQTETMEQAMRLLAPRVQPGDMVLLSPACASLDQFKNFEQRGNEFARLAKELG
Protocol: The nuclear magnetic resonance (NMR) spectra were recorded at 25 °C on a spectrometer (DirectDrive 800 MHz; Varian, Slovenian NMR centre at National Institute of Chemistry) equipped with a cryoprobe. The pulse sequences provided in the Varian BioPack library of pulse programmes was used. The samples were prepared in 90% H2O/10% DMSO-d6 buffer containing 20 mM HEPES, 7 mM (NH4)2SO4, 3.5 mM MgCl2, and 2 mM dithiothreitol, pH 7.2. Here, 0.07 mM MurD that was selectively labelled with ^13 C at the methyl groups of Ile (δ1 only), Val and Leu was used. The protein was titrated using compound 1 in MurD:ligand molar ratios of 0.5, 1, 2, 4 and 8, without and with 2 mM β,γ-methyleneadenosine 5'-triphosphate (AMP–PCP). […] The final concentration of DMSO-d6 was 12% (v/v). The variation of DMSO from 10 to 12% (v/v) affects the chemical shift perturbations by <0.02 ppm[31].
The heteronuclear single quantum coherence (HSQC) spectra for ^1H/^13C were acquired with 1024 data points in t2, 32 scans, 64 complex points in t1, and relaxation delay of 1 s. […] The spectra were processed and analysed with the Felix 2007 software package (Felix NMR Inc., Laboratory of Biomolecular Structure at National Institute of Chemistry). […] The combined ^1H/^13C chemical shift perturbations (Δδ) were calculated from the ^1H and ^13C chemical shift perturbations using Equation (1)[32]: (1) Δδ=((Δδ^1H)^2+(0.252×Δδ^13C)^2)^1/2. […]

E. coli MurC = E. coli MurC (Escherichia coli, UniProt P17952); test: Malachite green inhibition assay, MurC; assay type: biochemical
Sequence of E. coli MurC (P17952 whole entry): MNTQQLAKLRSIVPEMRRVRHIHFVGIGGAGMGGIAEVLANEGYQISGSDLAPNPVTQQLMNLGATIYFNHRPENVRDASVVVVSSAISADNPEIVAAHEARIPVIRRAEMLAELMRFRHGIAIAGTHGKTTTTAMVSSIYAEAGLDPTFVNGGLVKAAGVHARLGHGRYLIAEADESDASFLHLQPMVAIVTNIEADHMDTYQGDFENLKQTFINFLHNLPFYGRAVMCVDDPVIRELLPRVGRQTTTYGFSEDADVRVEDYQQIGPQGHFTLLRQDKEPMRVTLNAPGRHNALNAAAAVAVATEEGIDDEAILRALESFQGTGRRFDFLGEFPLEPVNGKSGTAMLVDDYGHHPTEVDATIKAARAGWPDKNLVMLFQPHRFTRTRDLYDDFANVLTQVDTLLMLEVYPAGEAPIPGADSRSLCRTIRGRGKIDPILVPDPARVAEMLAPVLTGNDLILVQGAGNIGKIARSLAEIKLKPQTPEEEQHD

MurD from E. coli = MurD from E. coli (Escherichia coli, UniProt P14900); test: Steady-state kinetic analysis on MurD; assay type: biochemical; details: for Ki: Ki (µM)
Sequence of MurD from E. coli (P14900 whole entry): as the sequence (P14900 whole entry) above
Protocol: For compound 1, Ki values were determined against MurD from E. coli. Ki determinations were performed under similar conditions to those described for the MurD inhibition assay, where different concentration of one substrate and a fixed concentration of the other two were used. First, the concentration of UMA was varied (10, 20, 40, 80 µM) at fixed ATP (400 µM) and D-Glu (100 µM), then the concentration of D-Glu was varied (50, 100, 200, 400 µM) at fixed ATP (400 µM) and UMA (80 µM), and finally, the concentration of ATP was varied (100, 200, 400, 800 µM) at fixed UMA (80 µM) and D-Glu (100 µM). The concentrations of 1 were 0, 15, 30, 60, 90, 120, 180 and 250 µM. After a 15 min incubation, 100 µM Biomol green reagent was added, and the absorbance was read at 650 nm after 5 min. All of the experiments were run in triplicate. The data were analysed using the SigmaPlot 12.0 software. The initial velocities were fitted to competitive, non-competitive, uncompetitive and mixed enzyme inhibition. The Ki and mode of inhibition from the best ranking model were used, as provided by the software.

[2] = residual activity at 100 µM compound, Table 1

Sequence of E. coli MurD (P14900 whole entry): as above

For Cc1cc(-c2ccco2)cc(C)c1/C=C/c1cncc(-c2nn[nH]n2)c1 [Compound 1], the “activity at human kinases” value (human kinases) is given as “no appreciable activity”, the remaining activity at 100 µM (E. coli MurD; 0.25 h, Table S1, PKIS screening, read-out: RA [%] at 100 µM MurD) is given as 45% and the IC50 (E. coli MurD; Table 1, read-out: MurD IC50) is given as 104 µM. For the same compound, the “LE (MurD)” value (E. coli MurD; ligand efficiency, LE = (1.37 × pIC50)/HAC) was 0.21, the “MurD RA [%]” value (E. coli MurD; [2]) was 45% and the solubility [1] was “not completely dissolved”. The “binding site on MurD” value (MurD) was “binds to the D-Glu binding site”, the remaining activity at 100 µM (E. coli MurC; 0.25 h, Table S1, PKIS screening, read-out: RA [%] at 100 µM MurC) was 70% and the IC50 (E. coli MurC; Table 1, read-out: MurC IC50) was 368 µM. For the same compound, the “RA (%) MurC” value (E. coli MurC; Table S3, aza stilbene compounds) was 70%, the “MurC RA [%]” value (E. coli MurC; [2]) was 70% and the Ki (MurD from E. coli; substrate ATP varied, fixed D-Glu 100 µM, UMA 80 µM) was 18.7 ± 2.6 µM. The Ki (MurD from E. coli; substrate D-Glu varied, fixed ATP 400 µM, UMA 80 µM) was 65.5 ± 4.9 µM, the Ki (MurD from E. coli; substrate UMA varied, fixed ATP 400 µM, D-Glu 100 µM) was 14.8 ± 11.2 µM and the Inhibition mechanism (MurD from E. coli; versus substrate ATP) was “Mixed (full)”. For the same compound, the Inhibition mechanism (MurD from E. coli; versus substrate D-Glu) was “Competitive (full)” and the Inhibition mechanism (MurD from E. coli; versus substrate UMA) was “Mixed (partial)”.
